The subject of data set [1] is Candida albicans ATCC 44859. The data set can be described thus: In vitro antifungal susceptibility, broth microdilution. The format is cell-based. The following applies: ATCC44859, 24 h and 48 h, only one value presented (inactive), read-out: MIC (IC80) CA. In general terms: In broth dilution the organism is exposed to a series of concentrations in liquid medium.
Data set [2] is described as follows: Lipophilicity determination using RP-HPLC (capacity factor, log k). The settings on record: C18, MeOH 55%/H2O 45%. The class given is physicochemical. The source says: Reversed phase high performance liquid chromatography (RP-HPLC) methods have become popular and are widely used for lipophilicity measurements. The general procedure is the measurement of the directly accessible retention time under isocratic conditions using varying amounts of methanol as an organic modifier in the mobile phase using RP columns and calculating the logarithm of the capacity factors (log k). Log k is the logarithm of the capacity factors in chromatographic approaches that is related to the partitioning of a compound between a mobile and a (pseudo-)stationary phase. Log k is used as the lipophilicity index converted to log P scale.
A Waters Alliance 2695 XE HPLC separation module and a Waters Photodiode Array Detector 2996 (Waters Corp., Milford, MA, USA) were used. A Symmetry® C18 5 μm, 4.6 × 250 mm, Part No. WAT054275 (Waters Corp.) chromatographic column was used. The HPLC separation process was monitored using Empower™ 2 Chromatography Data Software, Waters 2009 (Waters Corp.). A mixture of MeOH p.a. (55%) and H2O-HPLC-Mili-Q Grade (45%) was used as a mobile phase. The total flow of the column was 0.9 mL/min, injection volume 30 μL, column temperature 30 °C and sample temperature 10 °C. A detection wavelength of 210 nm was chosen. A KI methanolic solution was used for the determination of dead time (tD). Retention times (tR) were measured in minutes. The capacity factors k were calculated using the Empower™ 2 Chromatography Data Software according to the formula k = (tR − tD)/tD, where tR is the retention time of the solute, whereas tD denotes the dead time obtained using an unretained analyte. Log k, calculated from the capacity factor k, is used as the lipophilicity index converted to log P scale.

The test system of data set [3] is Candida tropicalis 156. In words: In vitro antifungal susceptibility, broth microdilution. The class given is cell-based. The following applies: Candida tropicalis, 156; 24 h and 48 h, only one value presented (inactive); read-out: MIC (IC80) CT.
The test system of data set [4] is Candida glabrata 20/I. Described as above. The format is cell-based. The settings on record: Nakaseomyces glabratus, 24 h and 48 h, only one value presented (inactive), read-out: MIC (IC80) CG.
Data set [5] has as its system Absidia corymbifera 272. The description is as above. The settings on record: Lichtheimia corymbifera, 272; 24 h and 48 h, only one value presented (inactive); read-out: MIC (IC50) AC. The class given is cell-based.
In data set [6] the test system is Aspergillus fumigatus 231. The description is as above. The format is cell-based. The settings on record: Aspergillus fumigatus, 231; 24 h and 48 h, only one value presented (inactive); read-out: MIC (IC50) AF.
The subject of data set [7] is HCT-116 human colon cancer cells (p53 wild type). In words: In vitro antiproliferative activity, MTS assay. The following applies: HCT-116, 72 h incubation, MTS, read-out: HCT-116 IC50. The class given is cell-based. The procedure:
The antiproliferative activity of all of the compounds was examined against the human colon cancer (HCT-116) cell line using an MTS assay. The HCT-116 p53 wild type cell line was chosen on the basis of our former experience and some results on the activity of quinoline-based thiosemicarbazones that was published recently. Namely, compounds 4a–l have been tested previously for their wide-ranging anticancer activity. The antiproliferative activity of the compounds evaluated was assessed using Doxorubicin as a reference compound. In general, quinoline-based thiosemicarbazones 4 seem to have a much better anticancer activity than halogenophenyl compounds 3. Thus, the quinoline nucleus can be defined as being crucial for antiproliferative activity. A more detailed analysis of the anticancer activity of quinoline-based thiosemicarbazone is available. […] Nevertheless, some more general conclusions can be drawn from the gathered data. […] The free amino group or substitution pattern with small substituents such as methyl or ethyl are favorable for activity. According to our former results the chelating ability of the compounds may be one of the prerequisites of the antiproliferative activity. In this study we have measured the UV-VIS spectra of the compounds in presence of various concentration of Fe^3+ cations to observe its chelating potency (supplementary material). […] However as 4j give also two points at 330 and 385 nm, iron chelating ability should be regarded only as one of the factor influencing the biological activity.
The human colon cancer cell line HCT116 with the wild type p53 gene (p53^+/+) were obtained from Maria Sklodowska-Curie Memorial Cancer Center in Gliwice, Poland. Briefly, the cells were seeded in 96-well plates (3 × 10^3 cells/well) in cellular proliferation assays 24 h before the addition of the chelators. The assay was performed following a 72 h incubation with varying concentrations of the agents. Each compound was tested in triplicate in a single experiment with each experiment being repeated 3 times. After 72 h incubation with the compounds being investigated, 20 µL of MTS solution was added to each well (100 µL) and incubated for 1 h at 37 °C. The optical densities of the samples were analyzed at 490 nm. Results were expressed as a percentage of the control. The inhibitory concentration (IC50) was defined as the compound concentration necessary to reduce the absorbance to 50% of the untreated control.

Data set [8] has as its system Candida krusei ATCC 6258. In words: In vitro antifungal susceptibility, broth microdilution. The format is cell-based. The following applies: Pichia kudriavzevii, ATCC6258; 24 h and 48 h, only one value presented (inactive); read-out: MIC (IC80) CK.
Data set [9] deals with Trichophyton mentagrophytes 445. The data set is described as above. The settings on record: Trichophyton mentagrophytes, 445; 72 h and 120 h, only one value presented (inactive); read-out: MIC (IC50) TM. The class given is cell-based.
In data set [10] the test system is Trichosporon beigelii 1188. Described as above. The format is cell-based. The following applies: Trichosporon beigelii, 1188; 24 h and 48 h, only one value presented (inactive); read-out: MIC (IC80) TB. The source says:
The broth microdilution test was used for the assessment of the in vitro antifungal activity of the synthesized compounds against Candida albicans ATCC 44859 (CA), Candida tropicalis 156 (CT), Candida krusei ATCC 6258 (CK), Candida glabrata 20/I (CG), Trichosporon beigelii 1188 (TB), Aspergillus fumigatus 231 (AF), Absidia corymbifera 272 (AC), and Trichophyton mentagrophytes 445 (TM). Fluconazole (FLU) was used as the standard since it is a clinically used antimycotic drug. The procedure was performed using a twofold dilution of the compounds in RPMI 1640 (Sevapharma a.s., Prague, Czech Republic) buffered to pH 7.0 with […] of 3-morpholino-propane-1-sulfonic acid (MOPS, Sigma, Prague, Czech Republic). The final concentrations of the compounds ranged from 500 to 0.975 μmol/L. Drug-free controls were included. The determination of minimum inhibitory concentration (MIC) was performed according to the Clinical and Laboratory Standards Institute (CLSI, formerly NCCLS) reference protocol M27-A2 for yeasts (IC80 value) and M38-A for moulds (IC50 value). IC80 and IC50 were defined as an 80% resp. 50% or greater reduction in growth in comparison with the control. The values of MICs were determined after 24 and 48 h of static incubation at 35 °C. The final MICs for T. mentagrophytes, were determined after 72 and 120 h of incubation.

For data set [11], the system named is photosynthetic electron transport (PET) in spinach chloroplasts. In words: Inhibition of photosynthetic electron transport (PET) in spinach chloroplasts. The settings on record: DCPIP photoreduction. The format is biochemical, Spinacia oleracea L. The procedure:
Chloroplasts were prepared from spinach (Spinacia oleracea L.) according to Masarovicova and Kralova. The inhibition of the photosynthetic electron transport (PET) in spinach chloroplasts was determined spectrophotometrically (Genesys 6, Thermo Fisher Scientific, Waltham, MA, USA) using an artificial electron acceptor 2,6-dichlorophenol-indophenol (DCIPP) according to Kralova et al. and the rate of photosynthetic electron transport was monitored as a photoreduction of DCPIP. The measurements were carried out in a phosphate buffer (0.02 mol/L, pH 7.2) containing sucrose (0.4 mol/L), MgCl2 (0.005 mol/L) and NaCl (0.015 mol/L). The chlorophyll content was 30 mg/L in these experiments and the samples were irradiated (~100 W/m^2 with 10 cm distance) with a halogen lamp (250 W) using a 4 cm water filter to prevent warming of the samples (suspension temperature 22 °C). The compounds studied were dissolved in DMSO due to their limited water solubility. […] The inhibitory efficiency of the compounds studied was expressed by IC50 values, i.e., by the molar concentration of the compounds that caused a 50% decrease in the oxygen evolution rate relative to the untreated control.

A word on the MIC: it is the lowest concentration that inhibits growth of the organism. Usually IC50 stands for the concentration that gives 50% inhibition. Consider `S=C(N/N=C/c1cccc(Cl)c1Cl)Nc1ccccc1` [Compound 3e, (E)-2-(2,3-dichlorobenzylidene)-N-phenylhydrazinecarbothioamide], for which the MIC in [1], in data set [3], in data set [4], in data set [8] and in data set [10] was more than 125 µM throughout. Further, in data set [2], the log k came to 0.9230. For the same compound, the IC50 in data set [5] is more than 125 µM; in [6] it was more than 125 µM; in [7], more than 60 µM; in data set [9], more than 125 µM; in [11], 499 µM.
In the case of `CNC(=S)N/N=C/c1ccc(Cl)c(Cl)c1` [Compound 3g, (E)-2-(3,4-Dichlorobenzylidene)-N-methylhydrazinecarbothioamide], the MIC in data set [1], in [3], in [4], in data set [8] and in data set [10] was more than 125 µM each time. For the same compound, the log k in data set [2] is listed as 0.7563. The IC50 in data set [5] is more than 125 µM; in data set [6], more than 125 µM; in [7] it was 55.5 ± 6.2 µM; in data set [9], more than 125 µM; in data set [11] it was 136 µM.
On to `S=C(N/N=C/c1ccc(Cl)c(Cl)c1)Nc1ccccc1` [Compound 3j, (E)-2-(3,4-Dichlorobenzylidene)-N-phenylhydrazinecarbothioamide], for which the MIC in data set [1], in data set [3], in data set [4], in [8] and in [10] was more than 125 µM each time. The same compound had a log k in data set [2] of 0.9774. For the same compound, the IC50 in data set [5] was more than 125 µM; in data set [6], more than 125 µM; in data set [7], more than 60 µM; in data set [9], more than 125 µM; in data set [11], 426 µM.
With `CCNC(=S)N/N=C/c1ccc(Cl)c(Cl)c1` [Compound 3i, (E)-2-(3,4-Dichlorobenzylidene)-N-ethylhydrazinecarbothioamide], the MIC in data set [1], in data set [3], in data set [4], in data set [8] and in data set [10] was more than 500 µM in each case. In data set [2], this compound returned a log k of 0.8415. Moreover, the IC50 was more than 500 µM in data set [5]; more than 500 µM in [6]; 48.5 ± 2.8 µM in [7]; more than 500 µM in data set [9]; 280 µM in [11].
For `NC(=S)N/N=C/c1ccc(Cl)c(Cl)c1` [Compound 3f, (E)-2-(3,4-Dichlorobenzylidene)hydrazinecarbothioamide], the MIC in data set [1], in data set [3], in data set [4], in data set [8] and in data set [10] was more than 500 µM in each case. This compound also displayed a log k in data set [2] of 0.6974. Besides, the half-maximal inhibitory concentration (IC50) in data set [5] is more than 500 µM; in data set [6], more than 500 µM; in data set [7] it was 46 ± 0.9 µM; in data set [9], more than 500 µM; in data set [11], 283 µM.
`CNC(=S)N/N=C/c1cccc(Cl)c1Cl` [Compound 3b, (E)-2-(2,3-Dichlorobenzylidene)-N-methylhydrazinecarbothioamide]: the MIC in data set [1], in [3], in [4], in data set [8] and in data set [10] was more than 500 µM throughout. Besides, in [2], the log k is 0.7357. The IC50 was more than 500 µM in data set [5]; more than 500 µM in data set [6]; more than 60 µM in data set [7]; more than 500 µM in data set [9]; 170 µM in [11].
